Legend:
Assay in all cases: Test B pre-/postemergence plant response
Format in all cases: in vivo
[1] = system: velvetleaf (Abutilon theophrasti); conditions: for Velvetleaf plant response rating: 8 g ai/ha
Method in brief: (§1)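 Preemergence and postemergence (plants 2-18 cm, 1- to 4-leaf stage) applications used test chemicals in a non-phytotoxic solvent with surfactant. Plants were held in a greenhouse 13 to 15 days, then rated visually against controls on a 0-100 scale (0 no effect, 100 complete control).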

[2] = system: downy bromegrass (Bromus tectorum); conditions: for Bromegrass, Downy plant response rating: 8 g ai/ha
Method in brief: as §1

[3] = system: bermudagrass (Cynodon dactylon); conditions: for Bermudagrass plant response rating: 8 g ai/ha
Method in brief: as §1

[4] = system: Russian thistle (Salsola iberica); conditions: Preemergence; for Russian Thistle plant response rating: 8 g ai/ha
Method in brief: as §1

[5] = system: Italian ryegrass (Lolium multiflorum); conditions: for Ryegrass, Italian plant response rating: 8 g ai/ha
Method in brief: as §1

[6] = system: pigweed (Amaranthus retroflexus); conditions: for Pigweed plant response rating: 8 g ai/ha
Method in brief: as §1

[7] = system: surinam grass (Brachiaria decumbens); conditions: for Surinam Grass plant response rating: 8 g ai/ha
Method in brief: as §1

[8] = system: eastern black (E.B.) nightshade (Solanum ptycanthum); conditions: Preemergence; for Nightshade, E. B. plant response rating: 8 g ai/ha
Method in brief: as §1

[9] = system: morningglory (Ipomoea coccinea); conditions: for Morningglory plant response rating: 8 g ai/ha
Method in brief: as §1

kochia (Kochia scoparia) = conditions: for Kochia plant response rating: 8 g ai/ha
Method in brief: as §1

[10] = system: green foxtail (Setaria viridis); conditions: for Foxtail, Green plant response rating: 8 g ai/ha
Method in brief: as §1

soybean (Glycine max) = conditions: for Soybean plant response rating: 8 g ai/ha
Method in brief: as §1

[11] = system: woolly cupgrass (Eriochloa villosa); conditions: for Cupgrass, Woolly plant response rating: 8 g ai/ha
Method in brief: as §1

corn (Zea mays) = conditions: for Corn plant response rating: 8 g ai/ha
Method in brief: as §1

[12] = Preemergence, 16 g ai/ha, scale 0 to 100 (0 no effect, 100 complete control)
[13] = Preemergence, 31 g ai/ha, 0 to 100 scale, 0 no effect, 100 complete control
[14] = Preemergence, 62 g ai/ha, scale 0 to 100
[15] = Preemergence, scale 0 to 100 (0 no effect, 100 complete control)
[16] = 16 g ai/ha, scale 0 to 100 (0 no effect, 100 complete control)
[17] = 31 g ai/ha, 0 to 100 scale, 0 no effect, 100 complete control
[18] = Postemergence, 16 g ai/ha, scale 0 to 100
[19] = Postemergence, 62 g ai/ha, scale 0 to 100, 0 no effect, 100 complete control
[20] = Postemergence, 31 g ai/ha, scale 0 to 100, 0 no effect, 100 complete control

Cn1ncc(O)c(-c2nn(-c3ccc(Cl)cc3)cc2Br)c1=O [Compound 31]
65: Plant response rating, Bromegrass, Downy [2, 13] | Foxtail, Green plant response rating ([10]; Preemergence, scale 0 to 100)
0: Plant response rating, Velvetleaf [1, 12] | Plant response rating, Velvetleaf [1, 13] | Plant response rating, Velvetleaf [1, 14] | Velvetleaf plant response rating ([1]; Preemergence, scale 0 to 100) | Plant response rating, Bromegrass, Downy [2, 12] | Bromegrass, Downy plant response rating ([2]; Preemergence, scale 0 to 100) | Plant response rating, Russian Thistle [4, 16] | Plant response rating, Russian Thistle [4, 17] | Plant response rating, Russian Thistle ([4]; 62 g ai/ha, scale 0 to 100) | Russian Thistle plant response rating ([4]; scale 0 to 100) | Plant response rating, Pigweed [6, 12] | Plant response rating, Pigweed [6, 13] | Plant response rating, Pigweed [6, 14] | Pigweed plant response rating ([6]; Preemergence, scale 0 to 100) | Plant response rating, Nightshade, E. B. [8, 16] | Plant response rating, Nightshade, E. B. [8, 17] | Plant response rating, Nightshade, E. B. ([8]; 62 g ai/ha, scale 0 to 100) | Nightshade, E. B. plant response rating ([8]; scale 0 to 100) | Plant response rating, Morningglory [9, 12] | Plant response rating, Morningglory [9, 13] | Plant response rating, Morningglory [9, 14] | Morningglory plant response rating ([9]; Preemergence, scale 0 to 100) | Plant response rating, Kochia (kochia (Kochia scoparia); [12]) | Plant response rating, Kochia (kochia (Kochia scoparia); [13]) | Plant response rating, Kochia (kochia (Kochia scoparia); [14]) | Kochia plant response rating (kochia (Kochia scoparia); Preemergence, scale 0 to 100) | Plant response rating, Soybean (soybean (Glycine max); [12]) | Plant response rating, Soybean (soybean (Glycine max); [13]) | Soybean plant response rating (soybean (Glycine max); Preemergence, scale 0 to 100) | Plant response rating, Corn (corn (Zea mays); [12])
60: Plant response rating, Soybean (soybean (Glycine max); [14]) | Plant response rating, Corn (corn (Zea mays); [13])
50: Ryegrass, Italian plant response rating ([5]; Preemergence, scale 0 to 100)
98: Plant response rating, Foxtail, Green [10, 12] | Plant response rating, Cupgrass, Woolly [11, 12]
85: Plant response rating, Bromegrass, Downy [2, 14]
80: Plant response rating, Surinam Grass [7, 12] | Surinam Grass plant response rating ([7]; Preemergence, scale 0 to 100)
100: Plant response rating, Bermudagrass [3, 12] | Plant response rating, Bermudagrass [3, 13] | Plant response rating, Bermudagrass [3, 14] | Plant response rating, Ryegrass, Italian [5, 14] | Plant response rating, Surinam Grass [7, 13] | Plant response rating, Surinam Grass [7, 14] | Plant response rating, Foxtail, Green [10, 13] | Plant response rating, Foxtail, Green [10, 14] | Plant response rating, Cupgrass, Woolly [11, 13] | Plant response rating, Cupgrass, Woolly [11, 14]
90: Plant response rating, Ryegrass, Italian [5, 12] | Plant response rating, Ryegrass, Italian [5, 13] | Plant response rating, Corn (corn (Zea mays); [14])
95: Bermudagrass plant response rating [3, 15]
70: Cupgrass, Woolly plant response rating ([11]; Preemergence, scale 0 to 100)

COC(=O)Oc1cnn(C)c(=O)c1-n1nc(-c2ccc(Cl)cc2)cc1C [Compound 33]
0: Velvetleaf plant response rating ([1]; postemergence, 0-100 scale) | Plant response rating, Velvetleaf [1, 18] | Plant response rating, Velvetleaf [1, 12] | Plant response rating, Velvetleaf [1, 13] | Velvetleaf plant response rating ([1]; Preemergence, scale 0 to 100) | Plant response rating, Bromegrass, Downy [2, 12] | Bromegrass, Downy plant response rating ([2]; Preemergence, scale 0 to 100) | Plant response rating, Russian Thistle [4, 16] | Plant response rating, Russian Thistle [4, 17] | Russian Thistle plant response rating ([4]; scale 0 to 100) | Pigweed plant response rating ([6]; postemergence, 0-100 scale) | Plant response rating, Pigweed [6, 18] | Plant response rating, Pigweed [6, 20] | Plant response rating, Pigweed [6, 19] | Plant response rating, Pigweed [6, 12] | Plant response rating, Pigweed [6, 13] | Plant response rating, Pigweed [6, 14] | Pigweed plant response rating ([6]; Preemergence, scale 0 to 100) | Plant response rating, Nightshade, E. B. [8, 16] | Plant response rating, Nightshade, E. B. [8, 17] | Plant response rating, Nightshade, E. B. ([8]; 62 g ai/ha, scale 0 to 100) | Nightshade, E. B. plant response rating ([8]; scale 0 to 100) | Morningglory plant response rating ([9]; postemergence, 0-100 scale) | Plant response rating, Morningglory [9, 18] | Plant response rating, Morningglory [9, 20] | Plant response rating, Morningglory [9, 19] | Plant response rating, Morningglory [9, 12] | Plant response rating, Morningglory [9, 13] | Plant response rating, Morningglory [9, 14] | Morningglory plant response rating ([9]; Preemergence, scale 0 to 100) | Kochia plant response rating (kochia (Kochia scoparia); postemergence, 0-100 scale) | Plant response rating, Kochia (kochia (Kochia scoparia); [18]) | Plant response rating, Kochia (kochia (Kochia scoparia); [20]) | Plant response rating, Kochia (kochia (Kochia scoparia); [19]) | Plant response rating, Kochia (kochia (Kochia scoparia); [13]) | Plant response rating, Kochia (kochia (Kochia scoparia); [14]) | Kochia plant response rating (kochia (Kochia scoparia); Preemergence, scale 0 to 100) | Soybean plant response rating (soybean (Glycine max); postemergence, 0-100 scale) | Plant response rating, Soybean (soybean (Glycine max); [18]) | Plant response rating, Soybean (soybean (Glycine max); [19]) | Plant response rating, Soybean (soybean (Glycine max); [12]) | Plant response rating, Soybean (soybean (Glycine max); [13]) | Plant response rating, Soybean (soybean (Glycine max); [14]) | Soybean plant response rating (soybean (Glycine max); Preemergence, scale 0 to 100)
75: Ryegrass, Italian plant response rating ([5]; postemergence, 0-100 scale) | Surinam Grass plant response rating ([7]; Preemergence, scale 0 to 100)
85: Ryegrass, Italian plant response rating ([5]; Preemergence, scale 0 to 100) | Surinam Grass plant response rating ([7]; postemergence, 0-100 scale) | Foxtail, Green plant response rating ([10]; postemergence, 0-100 scale) | Plant response rating, Foxtail, Green [10, 18] | Plant response rating, Corn (corn (Zea mays); [12])
5: Plant response rating, Velvetleaf [1, 19] | Bromegrass, Downy plant response rating ([2]; postemergence, 0-100 scale)
98: Plant response rating, Bermudagrass [3, 12] | Plant response rating, Ryegrass, Italian [5, 14] | Plant response rating, Surinam Grass [7, 13] | Cupgrass, Woolly plant response rating ([11]; postemergence, 0-100 scale)
90: Plant response rating, Surinam Grass [7, 12] | Plant response rating, Cupgrass, Woolly [11, 12] | Plant response rating, Corn (corn (Zea mays); [13])
95: Plant response rating, Ryegrass, Italian [5, 12] | Plant response rating, Ryegrass, Italian [5, 13] | Plant response rating, Corn (corn (Zea mays); [18]) | Plant response rating, Corn (corn (Zea mays); [14])
50: Plant response rating, Bromegrass, Downy [2, 18] | Corn plant response rating (corn (Zea mays); Preemergence, scale 0 to 100)
100: Plant response rating, Bromegrass, Downy [2, 14] | Plant response rating, Bermudagrass [3, 18] | Plant response rating, Bermudagrass [3, 20] | Plant response rating, Bermudagrass [3, 19] | Plant response rating, Bermudagrass [3, 13] | Plant response rating, Bermudagrass [3, 14] | Plant response rating, Ryegrass, Italian [5, 20] | Plant response rating, Ryegrass, Italian [5, 19] | Plant response rating, Surinam Grass [7, 18] | Plant response rating, Surinam Grass [7, 19] | Plant response rating, Surinam Grass [7, 14] | Plant response rating, Foxtail, Green [10, 20] | Plant response rating, Foxtail, Green [10, 19] | Plant response rating, Foxtail, Green [10, 12] | Plant response rating, Foxtail, Green [10, 13] | Plant response rating, Foxtail, Green [10, 14] | Foxtail, Green plant response rating ([10]; Preemergence, scale 0 to 100) | Plant response rating, Cupgrass, Woolly [11, 18] | Plant response rating, Cupgrass, Woolly [11, 20] | Plant response rating, Cupgrass, Woolly [11, 19] | Plant response rating, Cupgrass, Woolly [11, 13] | Plant response rating, Cupgrass, Woolly [11, 14] | Plant response rating, Corn (corn (Zea mays); [20]) | Plant response rating, Corn (corn (Zea mays); [19])
80: Plant response rating, Bromegrass, Downy [2, 19] | Plant response rating, Bromegrass, Downy [2, 13] | Bermudagrass plant response rating [3, 15] | Plant response rating, Russian Thistle ([4]; 62 g ai/ha, scale 0 to 100) | Plant response rating, Ryegrass, Italian [5, 18] | Cupgrass, Woolly plant response rating ([11]; Preemergence, scale 0 to 100) | Corn plant response rating (corn (Zea mays); postemergence, 0-100 scale)
70: Plant response rating, Bromegrass, Downy [2, 20] | Bermudagrass plant response rating ([3]; postemergence, 0-100 scale)
